Data as given in patent US20140377216A1, “ANTICANCER FUSION PROTEIN” (ADAMED SP. Z.O.O., priority 2011, published 2014).
“And” between values parts separate entries of the source, which are not always exact repeats. Equal values may be shown once.

Tests used:
human liver cancer HepG2 = assay: Liver cancer model, Experiment A: HepG2 xenograft; format: in vivo, Crl:SHO-PrkdcscidHrhr mice; conditions: 20 mg/kg i.p.
Protocol: (§1) Tumor size was measured using electronic calliper, tumor volume was calculated using the formula: (a^2×b)/2, where a=shorter diagonal of the tumor (mm) and b=longer diagonal of the tumor (mm). Inhibition of tumor growth was calculated using the formula:
(§2) TGI[%](Tumor growth inhibition)=(WT/WC)×100−100%
(§3) wherein WT is the average tumor volume in the treatment group, and WC is the average tumor volume in the control group.
On day 0 Crl:SHO-Prkdc^scidHr^hr mice were grafted subcutaneously (s.c.) in the right flank region with 7×10^6 of HepG2 cells suspended in 0.1 ml of the 3:1 mixture HBSS buffer:Matrigel using syringe with a 0.5×25 mm needle (Bogmark). When tumors reached the size of 64-529 mm^3 (day 25), mice were randomized to obtain the average size of tumors in the group of −230 mm^3 and assigned to treatment groups. The treatment groups were administered with the preparations of fusion protein of the invention of Ex. 16^b (80 mg/kg) and rhTRAIL114-281 (50 mg/kg) as a comparison and reference compound 5-FU (5-Fluorouracil, Sigma-Aldrich) (20 mg/kg). The preparations were administered intravenously (i.v.) six times every second day, 5-FU was applied intraperitoneally (i.p.). The control group received formulation buffer.
When the therapeutic group reached the average tumor size of ˜1000 mm^3, mice were sacrificed by cervical dislocation.

[1] = tested on: human liver cancer PLC/PRF/5; assay: Liver cancer model, Experiment B: PLC/PRF/5 xenograft; format: in vivo, Crl:SHO-PrkdcscidHrhr mice; conditions: 30 mg/kg i.p., schedule (q1dx5)×2, 43th day
Protocol: as §1, §2, §3
On day 0 Crl:SHO-Prkdc^scidHr^hr mice were grafted subcutaneously (s.c.) in the right flank region with 7×10^6 of PLC/PRF/5 cells suspended in 0.1 ml of the 3:1 mixture HBSS buffer:Matrigel using syringe with a 0.5×25 mm needle (Bogmark). When tumors reached the size of 72-536 mm^3 (day 29), mice were randomized to obtain the average size of tumors in the group of ˜205 mm^3 and assigned to treatment groups. The treatment groups were administered with the preparations of fusion protein of the invention of Ex. 16^b (50 mg/kg) and rhTRAIL114-281 (50 mg/kg) as a comparison and reference compound 5-FU (5-Fluorouracil, Sigma-Aldrich) (30 mg/kg). The preparations were administered intravenously (i.v.) six times every second day, except 5-FU, which was applied intraperitoneally (i.p.) in the schedule (q1dx5)×2. The control group received formulation buffer.
When an experimental group reached the average tumor size of ˜1000 mm^3, mice were sacrificed by cervical dislocation.

[2] = tested on: pancreatic carcinoma MIA PaCa-2; assay: Pancreas cancer model, Experiment B: MIA PaCa-2 xenograft; format: in vivo, Crl:SHO-PrkdcscidHrhr mice; conditions: 50 mg/kg i.p. six times every second day, 61th day
Protocol: as §1, §2, §3
On day 0 Crl:SHO-Prkdc^scidHr^hr mice were grafted subcutaneously (s.c.) in the right flank region with 5×10^6 of MIA PaCa-2 cells suspended in 0.1 ml of 3:1 mixture HBSS buffer:Matrigel using syringe with a 0.5×25 mm needle (Bogmark). When tumors reached the size of 60-398 mm^3 (day 20), mice were randomized to obtain the average size of tumors in the group of ˜170 mm^3 and assigned to treatment groups. The treatment groups were administered with the preparations of fusion protein of the invention of Ex. 16^b (50 mg/kg) and rhTRAIL114-281 (50 mg/kg) as a comparison and reference compound gemcytabine (Gemzar, Eli Lilly) (50 mg/kg). The preparations were administered intravenously (i.v.) six times every second day, gemcytabine was applied intraperitoneally (i.p.) in the same schedule. The control group received formulation buffer.
When a therapeutic group reached the average tumor size of ˜1000 mm^3, mice were sacrificed by the cervical dislocation.

A549 = assay: MTT cytotoxicity test on A549; format: cell-based, human; conditions: continuous incubation over 72 h
HCT116 = assay: MTT cytotoxicity test on HCT116; format: cell-based, human; conditions: continuous incubation over 72 h
MCF10A = assay: MTT cytotoxicity test on MCF10A; format: cell-based; conditions: continuous incubation over 72 h
MES-SA = assay: MTT cytotoxicity test on MES-SA; format: cell-based, human; conditions: continuous incubation over 72 h
MES-SA/Dx5 = assay: MTT cytotoxicity test on MES-SA/Dx5; format: cell-based, human; conditions: continuous incubation over 72 h
SK-MES-1 = assay: MTT cytotoxicity test on SK-MES-1; format: cell-based, human; conditions: continuous incubation over 72 h
NCI-H460 = assay: MTT cytotoxicity test on NCI-H460; format: cell-based, human; conditions: continuous incubation over 72 h
COLO 205 = assay: MTT cytotoxicity test on COLO 205; format: cell-based, human; conditions: continuous incubation over 72 h
MDA-MB-231 = assay: MTT cytotoxicity test on MDA-MB-231; format: cell-based, human; conditions: continuous incubation over 72 h
SW 620 = assay: MTT cytotoxicity test on SW 620; format: cell-based, human; conditions: continuous incubation over 72 h
UM-UC-3 = assay: MTT cytotoxicity test on UM-UC-3; format: cell-based, human; conditions: continuous incubation over 72 h
293 = assay: MTT cytotoxicity test on 293; format: cell-based, human; conditions: continuous incubation over 72 h
BxPC3 = assay: MTT cytotoxicity test on BxPC3; format: cell-based, human; conditions: continuous incubation over 72 h
HepG2 = assay: MTT cytotoxicity test on HepG2; format: cell-based, human; conditions: continuous incubation over 72 h
HT 144 = assay: MTT cytotoxicity test on HT 144; format: cell-based, human; conditions: continuous incubation over 72 h
LNCaP = assay: MTT cytotoxicity test on LNCaP; format: cell-based, human; conditions: continuous incubation over 72 h
OV-CAR-3 = assay: MTT cytotoxicity test on OV-CAR-3; format: cell-based, human; conditions: continuous incubation over 72 h
JURKAT A3 = assay: Cytotoxicity test on JURKAT A3 (nonadherent cells); format: cell-based, human; conditions: continuous incubation over 72 h, test MTT
From the text: (§4) MTT assay is a colorimetric assay used to measure proliferation, viability and cytotoxicity of cells. It consists in decomposition of a yellow tetrazolium salt MTT (4,5-dimethyl-2-thiazolyl)-2,5-diphenyltetrazolium bromide) to the water-insoluble purple dye formazan by mitochondrial enzyme succinate-tetrazolium reductase 1. MTT reduction occurs only in living cells. Data analysis consists in determining IC50 concentration of the protein (in ng/ml), at which the 50% reduction in the number of cells occurs in the population treated compared to control cells. Results were analyzed using GraphPad Prism 5.0 software. The test was performed according to the literature descriptions (Celis, J E, (1998). Cell Biology, a Laboratory Handbook, second edition, Academic Press, San Diego; Yang, Y., Koh, L W, Tsai, J H., (2004); Involvement of viral and chemical factors with oral cancer in Taiwan, Jpn J Clin Oncol, 34 (4), 176-183).
Cell culture medium was diluted to a defined density (10^4-10^5 cells per 100 μl). […] After stirring, the absorbance was measured at 570 nm (reference filter 690 nm).
EZ4U (Biomedica) test was used for testing cytotoxic activity of the proteins in nonadherent cell lines. […] On this basis IC50 values were determined (as an average of two independent experiments) using the GraphPad Prism 5 software. […]

PLC/PRF/5 = assay: MTT cytotoxicity test on PLC/PRF/5; format: cell-based, human; conditions: continuous incubation over 72 h
PANC-1 = assay: MTT cytotoxicity test on PANC-1; format: cell-based, human; conditions: continuous incubation over 72 h
Caki-1 = assay: MTT cytotoxicity test on Caki-1; format: cell-based, human; conditions: continuous incubation over 72 h
SK-HEP-1 = assay: MTT cytotoxicity test on SK-HEP-1; format: cell-based, human; conditions: continuous incubation over 72 h
SK-OV-3 = assay: MTT cytotoxicity test on SK-OV-3; format: cell-based, human; conditions: continuous incubation over 72 h
HT-1080 = assay: MTT cytotoxicity test on HT-1080; format: cell-based, human; conditions: continuous incubation over 72 h
MES-SA/Mx2 = assay: MTT cytotoxicity test on MES-SA/Mx2; format: cell-based, human; conditions: continuous incubation over 72 h
MCF-7 = assay: MTT cytotoxicity test on MCF-7; format: cell-based, human; conditions: continuous incubation over 72 h
MDA-MB-435S = assay: MTT cytotoxicity test on MDA-MB-435S; format: cell-based, human; conditions: continuous incubation over 72 h
Panc03.27 = assay: MTT cytotoxicity test on Panc03.27; format: cell-based, human; conditions: continuous incubation over 72 h
A498 = assay: MTT cytotoxicity test on A498; format: cell-based, human; conditions: continuous incubation over 72 h
HUV-EC-C = assay: MTT cytotoxicity test on HUV-EC-C (healthy control cells); format: cell-based, human; conditions: continuous incubation over 72 h
From the text: as §4
Cell culture medium was diluted to a defined density (10^4-10^5 cells per 100 μl). Then 100 μl of appropriately diluted cell suspension was applied to a 96-well plate in triplicates. […] After stirring, the absorbance was measured at 570 nm (reference filter 690 nm). […]

For `O=c1[nH]cc(F)c(=O)[nH]1` [5-FU, 5-Fluorouracil], the “efficacy against HepG2 tumors” value (human liver cancer HepG2) was “didn't show any efficacy” and the “TGI (tumor growth inhibition) relative to the control” value [1] was 32.2%.

With `Nc1ccn([C@@H]2O[C@H](CO)[C@@H](O)C2(F)F)c(=O)n1` [gemcytabine] the “TGI (tumor growth inhibition) relative to the control” value [2] was 42.6%.

With “rhTRAIL95-281: TRAIL comparator protein as labelled in cytotoxicity Tables 4-4d (hTRAIL fragment 95-281)” the IC50 (A549) was over 10 µg/mL, the IC50 (A549; listed as TRAIL 95-281) was over 2 µg/mL and the IC50 (HCT116) was 7.557 µg/mL. The IC50 (HCT116; listed as TRAIL 95-281) was over 2 µg/mL, the IC50 (MCF10A) was over 10 µg/mL and the IC50 (MCF10A; listed as TRAIL 95-281) was over 2 µg/mL. For the same molecule, the IC50 (MES-SA) was over 10 µg/mL, the IC50 (MES-SA; listed as TRAIL 95-281) was over 2 µg/mL and the IC50 (MES-SA/Dx5) was 0.02915 µg/mL. For the same molecule, the IC50 (MES-SA/Dx5; listed as TRAIL 95-281) was 0.02759 µg/mL, the IC50 (SK-MES-1) was 0.03935 µg/mL and the IC50 (SK-MES-1; listed as TRAIL 95-281) was 0.1007 µg/mL. For the same molecule, the IC50 (NCI-H460) was 5.889 µg/mL, the IC50 (NCI-H460; listed as TRAIL 95-281) was 0.438 µg/mL and the IC50 (COLO 205) was 0.05902 µg/mL. The IC50 (MDA-MB-231) was over 2 µg/mL, the IC50 (SW 620) was over 2 µg/mL and the IC50 (UM-UC-3) was 2.242 µg/mL. For the same molecule, the IC50 293 was over 10 µg/mL, the IC50 (BxPC3) was 0.06471 µg/mL and 0.0606 µg/mL and the IC50 (HepG2; listed as TRAIL 95-281) was over 2 µg/mL. For the same molecule, the IC50 (HepG2; listed as rhTRAIL 95-281) was over 10 µg/mL, the IC50 (HT 144; listed as TRAIL 95-281) was 1.134 µg/mL and the IC50 (HT 144; listed as rhTRAIL 95-281) was 1.73 µg/mL. The IC50 (LNCaP) was 2.052 µg/mL, the IC50 (OV-CAR-3; listed as TRAIL 95-281) was 0.963 µg/mL and the IC50 (OV-CAR-3; listed as rhTRAIL 95-281) was 0.963 µg/mL. The IC50 (JURKAT A3) was over 10 µg/mL, the IC50 (PLC/PRF/5) was over 9 µg/mL and the IC50 (PLC/PRF/5; listed as TRAIL 95-281) was over 2 µg/mL. It also gave an IC50 (PANC-1) of over 10 µg/mL, an IC50 (PANC-1; listed as TRAIL 95-281) of over 2 µg/mL and an IC50 (Caki-1) of 0.01342 µg/mL. The IC50 (SK-HEP-1) was over 2 µg/mL, the IC50 (SK-OV-3) was over 2 µg/mL and the IC50 (HT-1080) was over 2 µg/mL. It also gave an IC50 (MES-SA/Mx2) of 0.03895 µg/mL, an IC50 (MCF-7) of over 2 µg/mL and an IC50 (MDA-MB-435S) of over 2 µg/mL. It also gave an IC50 (Panc03.27) of 0.315 µg/mL, an IC50 (A498) of 1.611 µg/mL and an IC50 (HUV-EC-C) of over 2 µg/mL.
